This is an account of results in BindingDB's records for patent US20240124450 (Pfizer, 2024).

One may read the IC50 as the point on the concentration scale where inhibition reaches its midpoint.

Common to all, as to assay: Enzyme Assay: Pan SIK MS IC50 Assay
Experiment [1] deals with Serine/threonine-protein kinase SIK3 (Homo sapiens, UniProt Q9Y2K2). The method, then: (§1) Salt Induced Kinase (SIK) activity is determined by measuring the effect of a test agent on the activity of the appropriate SIK enzyme to phosphorylate its corresponding substrate. […] The phosphorylated substrate product resulting from the kinase reaction is detected by LCMS/MS, and the area under the peak curve correlates with kinase activity. […] The plates are spun at 1000 rpm for 30 seconds to ensure compounds are at the bottom of the well before removing foil covers. 0.15 μL HPE (assay std) and ZPE (DMSO) are added to the ARP using an HP D300 dispenser. Plates are spun again at 1000 rpm for 30 seconds. […] Plates are spun at 1000 rpm for 30 seconds. Plates are then sealed and incubated at RT for 10 minutes. Following incubation, 5 μL of 5× peptide reagent is added with a Multidrop Combi and designated small volume cassette to initiate the kinase reaction. Plates are spun at 1000 rpm for 30 seconds. Plates are then sealed and incubated at RT for 90 minutes. The assay is stopped by the addition of 5 μl of 120 mM EDTA added with a Multidrop Combi and designated small volume cassette (20 mM final concentration). Plates are spun at 1000 rpm for 30 seconds. 10 μl of the final reaction mix from each of the three individual enzyme plates are transferred by a Platemate Plus to the same corresponding 96 well deepwell plate containing 70 μl Water/Methanol (85/15%) for multiplex MS detection ([…]). Using Activity Base (ABase), an idbs data analysis software tool, the reported area ratio unit data is associated to compound, batch and dose information, the data is evaluated for quality, and the percent inhibition of each well is calculated. The data from each Max effect/HPE and Min effect/ZPE control wells are assessed, and outliers are excluded from all further calculations. The mean and standard deviation of the HPE and ZPE are then calculated for each plate, along with the Z Prime. The compound data is converted into % effect, using the average ZPE and HPE controls as 0% and 100% activity, respectively.
Serine/threonine-protein kinase SIK3, sequence (Q9Y2K2 whole entry): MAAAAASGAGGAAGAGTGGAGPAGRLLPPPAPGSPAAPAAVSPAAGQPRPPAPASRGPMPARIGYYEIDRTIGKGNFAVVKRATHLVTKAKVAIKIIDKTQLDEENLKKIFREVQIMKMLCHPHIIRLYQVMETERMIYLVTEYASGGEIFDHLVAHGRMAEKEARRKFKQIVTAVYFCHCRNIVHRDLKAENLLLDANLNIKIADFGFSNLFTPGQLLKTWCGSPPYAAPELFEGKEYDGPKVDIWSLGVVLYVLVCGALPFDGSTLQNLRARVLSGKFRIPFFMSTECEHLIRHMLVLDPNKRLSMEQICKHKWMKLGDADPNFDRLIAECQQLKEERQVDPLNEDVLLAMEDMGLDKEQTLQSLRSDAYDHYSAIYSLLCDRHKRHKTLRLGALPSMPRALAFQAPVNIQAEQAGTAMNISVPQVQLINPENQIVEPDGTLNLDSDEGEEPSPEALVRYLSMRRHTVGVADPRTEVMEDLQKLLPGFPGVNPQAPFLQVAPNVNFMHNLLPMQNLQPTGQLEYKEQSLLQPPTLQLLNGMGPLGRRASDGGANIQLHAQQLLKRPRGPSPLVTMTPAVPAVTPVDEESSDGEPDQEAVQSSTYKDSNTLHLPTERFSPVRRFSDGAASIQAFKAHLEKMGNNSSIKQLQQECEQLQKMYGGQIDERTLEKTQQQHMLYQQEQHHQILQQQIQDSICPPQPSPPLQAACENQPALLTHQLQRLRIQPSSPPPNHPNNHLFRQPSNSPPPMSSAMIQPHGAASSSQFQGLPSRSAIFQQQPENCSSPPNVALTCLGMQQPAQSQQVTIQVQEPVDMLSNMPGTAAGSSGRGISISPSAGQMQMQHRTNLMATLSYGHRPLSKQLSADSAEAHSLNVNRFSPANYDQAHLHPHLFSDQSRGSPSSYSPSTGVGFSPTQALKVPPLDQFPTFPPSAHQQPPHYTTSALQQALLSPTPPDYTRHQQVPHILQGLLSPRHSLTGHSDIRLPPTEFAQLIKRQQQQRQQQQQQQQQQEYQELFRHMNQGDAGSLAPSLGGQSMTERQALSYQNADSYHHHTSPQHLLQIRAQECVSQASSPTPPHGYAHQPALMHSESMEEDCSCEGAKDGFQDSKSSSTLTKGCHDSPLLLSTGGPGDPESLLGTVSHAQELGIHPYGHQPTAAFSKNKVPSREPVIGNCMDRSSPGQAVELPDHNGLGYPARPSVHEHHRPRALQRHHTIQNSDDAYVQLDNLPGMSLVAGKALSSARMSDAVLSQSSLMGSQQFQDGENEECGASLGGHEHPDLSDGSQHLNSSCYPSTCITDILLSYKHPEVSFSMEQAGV

The target in experiment [2] is Serine/threonine-protein kinase SIK1 (Homo sapiens, UniProt P57059). As to the method:
as §1

For experiment [3], the target named is Serine/threonine-protein kinase SIK2 (Homo sapiens, UniProt Q9H0K1). As to the method:
as §1

Serine/threonine-protein kinase SIK1, sequence (P57059 whole entry): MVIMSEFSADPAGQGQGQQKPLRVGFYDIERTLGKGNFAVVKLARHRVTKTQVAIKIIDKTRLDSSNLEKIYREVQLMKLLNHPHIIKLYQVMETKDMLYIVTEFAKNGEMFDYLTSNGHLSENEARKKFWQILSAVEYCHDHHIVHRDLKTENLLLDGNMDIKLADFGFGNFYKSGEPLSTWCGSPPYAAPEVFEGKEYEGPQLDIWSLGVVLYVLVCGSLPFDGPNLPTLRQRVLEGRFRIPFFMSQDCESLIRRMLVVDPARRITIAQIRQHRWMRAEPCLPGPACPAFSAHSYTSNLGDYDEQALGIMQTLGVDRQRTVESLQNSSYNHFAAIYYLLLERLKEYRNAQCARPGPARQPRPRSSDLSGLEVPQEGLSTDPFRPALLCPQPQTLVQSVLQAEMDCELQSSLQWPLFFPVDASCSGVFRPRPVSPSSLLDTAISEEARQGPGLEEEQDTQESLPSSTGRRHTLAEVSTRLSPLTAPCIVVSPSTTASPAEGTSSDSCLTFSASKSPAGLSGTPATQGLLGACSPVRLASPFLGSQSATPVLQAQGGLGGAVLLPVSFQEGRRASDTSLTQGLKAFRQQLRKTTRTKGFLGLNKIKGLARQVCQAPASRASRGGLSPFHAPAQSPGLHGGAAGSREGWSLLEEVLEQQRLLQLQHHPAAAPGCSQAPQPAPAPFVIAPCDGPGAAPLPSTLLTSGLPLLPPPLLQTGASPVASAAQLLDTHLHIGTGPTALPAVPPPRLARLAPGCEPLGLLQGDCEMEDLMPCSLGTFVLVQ
Serine/threonine-protein kinase SIK2, sequence (Q9H0K1 whole entry): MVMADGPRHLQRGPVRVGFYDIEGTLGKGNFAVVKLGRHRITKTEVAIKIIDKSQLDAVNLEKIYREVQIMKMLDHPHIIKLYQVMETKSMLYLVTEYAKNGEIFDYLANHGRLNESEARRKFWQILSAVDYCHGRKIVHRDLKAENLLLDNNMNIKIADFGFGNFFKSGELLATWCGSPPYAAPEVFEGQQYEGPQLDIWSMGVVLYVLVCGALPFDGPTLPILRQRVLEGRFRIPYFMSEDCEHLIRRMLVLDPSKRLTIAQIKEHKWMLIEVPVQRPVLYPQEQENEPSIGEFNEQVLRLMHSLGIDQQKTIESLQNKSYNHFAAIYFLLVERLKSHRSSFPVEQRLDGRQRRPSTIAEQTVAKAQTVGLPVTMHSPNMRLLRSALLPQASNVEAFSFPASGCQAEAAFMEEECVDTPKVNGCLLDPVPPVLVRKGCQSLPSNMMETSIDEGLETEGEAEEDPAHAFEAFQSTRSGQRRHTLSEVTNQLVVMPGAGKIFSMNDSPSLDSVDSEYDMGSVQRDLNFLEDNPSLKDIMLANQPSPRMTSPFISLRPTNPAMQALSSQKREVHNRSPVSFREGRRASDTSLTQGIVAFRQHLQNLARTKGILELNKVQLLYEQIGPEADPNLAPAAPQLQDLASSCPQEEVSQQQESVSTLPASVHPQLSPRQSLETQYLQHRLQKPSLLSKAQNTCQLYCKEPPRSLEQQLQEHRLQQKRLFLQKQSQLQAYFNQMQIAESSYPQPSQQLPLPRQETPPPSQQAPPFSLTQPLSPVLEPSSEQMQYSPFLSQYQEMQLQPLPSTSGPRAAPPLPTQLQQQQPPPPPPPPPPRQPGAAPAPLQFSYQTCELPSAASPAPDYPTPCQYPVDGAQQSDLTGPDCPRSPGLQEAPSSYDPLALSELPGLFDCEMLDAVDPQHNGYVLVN

As for `CC[C@@H]1CCC[C@](N)(COc2cc(-c3cnc4cccc(OC)n34)cc(OC)c2C#N)C1` [US20240124450, Example 16], the 50% inhibitory concentration (IC50) in experiment [1] was 1.7 nM; in experiment [2], 0.8 nM.

Take `CC[C@@H]1CCC[C@@]1(N)COc1cc(-c2cnc3cccc(OC)n23)cc(SC)c1C#N` (mixture of isomers) [US20240124450, Example 9]: the IC50 in experiment [1] came to 2 nM; in experiment [2], 0.9 nM.

With `CSc1cc(-c2cnc3cccc(C#N)n23)cc(OC[C@@]2(N)CCC(F)(F)C2)c1C#N` (mixture of isomers) [US20240124450, Example 12], the IC50 in experiment [1] was 4.8 nM; in experiment [2] it was 2.4 nM; in experiment [3], 1.8 nM.
